Tested on: DOHH2 cells
Assay: Cell proliferation assay (MTS) in DOHH2 cells, mechanism-based assay for BTK inhibition
Details: Homo sapiens, DOHH-2, 120 h incubation, 5000 cells/well
Excerpt: Cell Proliferation Assays
MTS testing kit was purchased from Promega. The DMEM, Fetal bovine serum and Penicillin-Streptomycin were purchased from Gibco. Dimethyl sulfoxide (DMSO) was purchased from Sigma.
To investigate whether a compound is able to inhibit the activity of BTK in cells, a mechanism-based assay using DOHH2 (DSMZ catalog#: ACC47) and Mino (ATCC® Number CRL-3000™) cells was developed. In this assay, inhibition of BTK was detected by the inhibition of DOHH2 and Mino cell proliferations. DOHH2 or Mino cells were cultured in culture flasks to 40-80% confluence in RPMI-1640 plus 10% fetal bovine serum. C ells were collected and plated onto 96-well plates at desired cell density (DOHH2: 5000 cells/well; Mino: 10000 cells/well). Plates were incubated overnight at 37° C., with 5% CO2 to adhere. Compounds were added to the plates, and the final compound concentrations were 10000, 3333, 1111, […], 41, 14, 4.6 and 1.5 nM. Plates were placed at 37° C., with 5% CO2 for 120 h (DOHH2) or 72 h (Mino). 20 μl MTS/100 μl medium mixture solution were added to each well and the plates were incubated for exactly 2 hours. The reaction was stopped by adding 25 μl 10% SDS per well.
Select compounds prepared as described above were assayed according to the biological procedures described herein.

Row | Compound | IC50 [nM]
1 | CC#CC(=O)N1CC[C@@H](c2cn(-c3ccc(Oc4ccccc4F)cc3)c3c(N)n[nH]c(=O)c23)C1 [Example 75, (S)-7-amino-3-(1-(but-2-ynoyl)pyrrolidin-3-yl)-1-(4-(2-fluorophenoxy)phenyl)-1,5-dihydro-4H-pyrrolo[2,3-d]pyridazin-4-one] | 383
2 | CC#CC(=O)N1CC[C@H](c2cn(-c3ccc(Oc4ccccc4F)cc3)c3c(N)n[nH]c(=O)c23)C1 [Example 76, (R)-7-amino-3-(1-(but-2-ynoyl)pyrrolidin-3-yl)-1-(4-(2-fluorophenoxy)phenyl)-1,5-dihydro-4H-pyrrolo[2,3-d]pyridazin-4-one] | 124
3 | CC#CC(=O)N1CCC[C@@H](c2nn(-c3ccc(Oc4ccccc4F)cc3)c3c(N)n[nH]c(=O)c23)C1 [Example 77, (R)-7-amino-3-(1-(but-2-ynoyl)piperidin-3-yl)-1-(4-(2-fluorophenoxy)phenyl)-1,5-dihydro-4H-pyrazolo[3,4-d]pyridazin-4-one] | 666
4 | CC#CC(=O)N1CCC[C@@H](c2cn(-c3ccc(Oc4ccccc4F)cc3)c3c(N)n[nH]c(=O)c23)C1 [Example 79, (S)-7-amino-3-(1-(but-2-ynoyl)piperidin-3-yl)-1-(4-(2-fluorophenoxy)phenyl)-1,5-dihydro-4H-pyrrolo[2,3-d]pyridazin-4-one] | 164
5 | CC#CC(=O)N1CCC[C@H](c2cn(-c3ccc(Oc4ccccc4F)cc3)c3c(N)n[nH]c(=O)c23)C1 [Example 80, (R)-7-amino-3-(1-(but-2-ynoyl)piperidin-3-yl)-1-(4-(2-fluorophenoxy)phenyl)-1,5-dihydro-4H-pyrrolo[2,3-d]pyridazin-4-one] | 450
6 | CC#CC(=O)N1CC[C@H](c2nn(-c3ccc(Oc4c(F)cccc4F)cc3)c3c(N)n[nH]c(=O)c23)C1 [Example 82, (S)-7-amino-3-(1-(but-2-ynoyl)pyrrolidin-3-yl)-1-(4-(2,6-difluorophenoxy)phenyl)-1,5-dihydro-4H-pyrazolo[3,4-d]pyridazin-4-one] | 687
7 | CC#CC(=O)N1CC[C@@H](c2cn(-c3ccc(Oc4c(F)cccc4F)cc3)c3c(N)n[nH]c(=O)c23)C1 [Example 83, (S)-7-amino-3-(1-(but-2-ynoyl)pyrrolidin-3-yl)-1-(4-(2,6-difluorophenoxy)phenyl)-1,5-dihydro-4H-pyrrolo[2,3-d]pyridazin-4-one] | 456
8 | CC#CC(=O)N1CC[C@H](c2cn(-c3ccc(Oc4c(F)cccc4F)cc3)c3c(N)n[nH]c(=O)c23)C1 [Example 84, (R)-7-amino-3-(1-(but-2-ynoyl)pyrrolidin-3-yl)-1-(4-(2,6-difluorophenoxy)phenyl)-1,5-dihydro-4H-pyrrolo[2,3-d]pyridazin-4-one] | 369
9 | CC#CC(=O)N1CCC[C@@H](c2nn(-c3ccc(Oc4c(F)cccc4F)cc3)c3c(N)n[nH]c(=O)c23)C1 [Example 85, (R)-7-amino-3-(1-(but-2-ynoyl)piperidin-3-yl)-1-(4-(2,6-difluorophenoxy)phenyl)-1,5-dihydro-4H-pyrazolo[3,4-d]pyridazin-4-one] | 435
10 | CC#CC(=O)N1CCC[C@@H](c2cn(-c3ccc(Oc4c(F)cccc4F)cc3)c3c(N)n[nH]c(=O)c23)C1 [Example 87, (S)-7-amino-3-(1-(but-2-ynoyl)piperidin-3-yl)-1-(4-(2,6-difluorophenoxy)phenyl)-1,5-dihydro-4H-pyrrolo[2,3-d]pyridazin-4-one] | 265
11 | CC#CC(=O)N1CCC[C@H](c2cn(-c3ccc(Oc4c(F)cccc4F)cc3)c3c(N)n[nH]c(=O)c23)C1 [Example 88, (R)-7-amino-3-(1-(but-2-ynoyl)piperidin-3-yl)-1-(4-(2,6-difluorophenoxy)phenyl)-1,5-dihydro-4H-pyrrolo[2,3-d]pyridazin-4-one] | 432
12 | C=CC(=O)N1CC[C@@H](c2nn(-c3ccc(C(=O)Nc4ccccn4)cc3)c3c(N)n[nH]c(=O)c23)C1 [Example 90, (R)-4-(3-(1-acryloylpyrrolidin-3-yl)-7-amino-4-oxo-4,5-dihydro-1H-pyrazolo[3,4-d]pyridazin-1-yl)-N-(pyridin-2-yl)benzamide] | 580
13 | COC/C=C/C(=O)N1CC[C@@H](c2cn(-c3ccc(Oc4ccccc4)cc3)c3c(N)n[nH]c(=O)c23)C1 [Example 91, (S,E)-7-amino-3-(1-(4-methoxybut-2-enoyl)pyrrolidin-3-yl)-1-(4-phenoxyphenyl)-1,5-dihydro-4H-pyrrolo[2,3-d]pyridazin-4-one] | 640
14 | COC/C=C/C(=O)N1CC[C@@H](c2cn(-c3ccc(Oc4ccccc4F)cc3)c3c(N)n[nH]c(=O)c23)C1 [Example 92, (S,E)-amino-1-(4-(2-fluorophenoxy)phenyl)-3-(1-(4-methoxybut-2-enoyl)pyrrolidin-3-yl)-1,5-dihydro-4H-pyrrolo[2,3-d]pyridazin-4-one] | 649
15 | CN(C)C/C=C/C(=O)N1CC[C@@H](c2cn(-c3ccc(Oc4ccccc4)cc3)c3c(N)n[nH]c(=O)c23)C1 [Example 93, (S,E)-7-amino-3-(1-(4-(dimethylamino)but-2-enoyl)pyrrolidin-3-yl)-1-(4-phenoxyphenyl)-1,5-dihydro-4H-pyrrolo[2,3-d]pyridazin-4-one] | 239
16 | CN(C)C/C=C/C(=O)N1CC[C@@H](c2cn(-c3ccc(Oc4ccccc4F)cc3)c3c(N)n[nH]c(=O)c23)C1 [Example 94, (S,E)-7-amino-3-(1-(4-(dimethylamino)but-2-enoyl)pyrrolidin-3-yl)-1-(4-(2-fluorophenoxy)phenyl)-1,5-dihydro-4H-pyrrolo[2,3-d]pyridazin-4-one] | 247
17 | Nc1n[nH]c(=O)c2c([C@@H]3CCN(C(=O)/C=C/[C@H]4CCN4)C3)cn(-c3ccc(Oc4ccccc4)cc3)c12 [Example 97, 7-amino-3-((S)-1-((E)-3-((R)-azetidin-2-yl)acryloyl)pyrrolidin-3-yl)-1-(4-phenoxyphenyl)-1,5-dihydro-4H-pyrrolo[2,3-d]pyridazin-4-one] | 701
18 | COC/C=C/C(=O)N1CCC[C@@H](c2cn(-c3ccc(Oc4ccccc4)cc3)c3c(N)n[nH]c(=O)c23)C1 [Example 101, (S,E)-7-amino-3-(1-(4-methoxybut-2-enoyl)piperidin-3-yl)-1-(4-phenoxyphenyl)-1,5-dihydro-4H-pyrrolo[2,3-d]pyridazin-4-one] | 208
19 | COC/C=C/C(=O)N1CCC[C@@H](c2cn(-c3ccc(Oc4ccccc4F)cc3)c3c(N)n[nH]c(=O)c23)C1 [Example 102, (S,E)-7-amino-1-(4-(2-fluorophenoxy)phenyl)-3-(1-(4-methoxybut-2-enoyl)piperidin-3-yl)-1,5-dihydro-4H-pyrrolo[2,3-d]pyridazin-4-one] | 319
20 | CN(C)C/C=C/C(=O)N1CCC[C@@H](c2cn(-c3ccc(Oc4ccccc4)cc3)c3c(N)n[nH]c(=O)c23)C1 [Example 103, (S,E)-7-amino-3-(1-(4-(dimethylamino)but-2-enoyl)piperidin-3-yl)-1-(4-phenoxyphenyl)-1,5-dihydro-4H-pyrrolo[2,3-d]pyridazin-4-one] | 97
21 | CN(C)C/C=C/C(=O)N1CCC[C@@H](c2cn(-c3ccc(Oc4ccccc4F)cc3)c3c(N)n[nH]c(=O)c23)C1 [Example 104, (S,E)-7-amino-3-(1-(4-(dimethylamino)but-2-enoyl)piperidin-3-yl)-1-(4-(2-fluorophenoxy)phenyl)-1,5-dihydro-4H-pyrrolo[2,3-d]pyridazin-4-one] | 151
22 | CN1CC[C@@H]1/C=C/C(=O)N1CCC[C@@H](c2cn(-c3ccc(Oc4ccccc4)cc3)c3c(N)n[nH]c(=O)c23)C1 [Example 107, 7-amino-3-((S)-1-((E)-3-((R)-1-methylazetidin-2-yl)acryloyl)piperidin-3-yl)-1-(4-phenoxyphenyl)-1,5-dihydro-4H-pyrrolo[2,3-d]pyridazin-4-one] | 737
23 | CCN1CC[C@@H]1/C=C/C(=O)N1CCC[C@@H](c2cn(-c3ccc(Oc4ccccc4F)cc3)c3c(N)n[nH]c(=O)c23)C1 [Example 110, 7-amino-3-((S)-1-((E)-3-((R)-1-ethylazetidin-2-yl)acryloyl)piperidin-3-yl)-1-(4-(2-fluorophenoxy)phenyl)-1,5-dihydro-4H-pyrrolo[2,3-d]pyridazin-4-one] | 123
24 | C=CC(=O)N1CC(c2cn(-c3ccc(Oc4ccccc4F)cc3)c3c(N)n[nH]c(=O)c23)C1 [Example 111, 3-(1-acryloylazetidin-3-yl)-7-amino-1-(4-(2-fluorophenoxy)phenyl)-1,5-dihydro-4H-pyrrolo [2,3-d]pyridazin-4-one] | 261
25 | C=CC(=O)N1CCC(c2cn(-c3ccc(Oc4ccccc4)cc3)c3c(N)n[nH]c(=O)c23)CC1 [Example 112, 3-(1-acryloylpiperidin-4-yl)-7-amino-1-(4-phenoxyphenyl)-1,5-dihydro-4H-pyrrolo[2,3-d]pyridazin-4-one] | 78
26 | C=CC(=O)N1CCC(c2cn(-c3ccc(Oc4ccccc4F)cc3)c3c(N)n[nH]c(=O)c23)CC1 [Example 113, 3-(1-acryloylpiperidin-4-yl)-7-amino-1-(4-(2-fluorophenoxy)phenyl)-1,5-dihydro-4H-pyrrolo[2,3-d]pyridazin-4-one] | 161
27 | C=CC(=O)N1CC(c2cn(-c3ccc(Oc4ccccc4)cc3)c3c(N)n[nH]c(=O)c23)C1 [Example 114, 3-(1-acryloylazetidin-3-yl)-7-amino-1-(4-phenoxyphenyl)-1,5-dihydro-4H-pyrrolo[2,3-d] pyridazin-4-one] | 473

Source: patent US10800785B2, “Substituted pyrrolo[2,3-d]pyridazin-4-ones and pyrazolo[3,4-d]pyridazin-4-ones as protein kinase inhibitors” (Shanghai Fochon Pharmaceutical Co., Ltd., priority 2016, dated 2020)
